The source made the active and inactive calls. No cut-off for these calls is given here.
Legend:
[1] = target: T1, Basic phospholipase A2 VRV-PL-VIIIa (Daboia russelii, UniProt P59071); assay: (§1) Inhibition of Vipera russelii sPLA2 pre-incubated for 5 mins before DMPC substrate addition and measured after 45 mins
T1 sequence (P59071 whole entry): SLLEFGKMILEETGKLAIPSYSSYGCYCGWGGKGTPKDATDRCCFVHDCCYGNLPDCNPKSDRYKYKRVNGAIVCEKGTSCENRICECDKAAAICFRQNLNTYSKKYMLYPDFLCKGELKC

[2] = target: T2, Basic phospholipase A2 VRV-PL-VIIIa (Daboia russelii) (UniProt P59071); assay: as §1
T2 sequence (whole entry): T1 sequence (P59071 whole entry)

[3] = Inhibition of hydrogen potassium ATPase in pig stomach mucosal membrane assessed as reduction in liberated inorganic phosphate level after 15 mins by colorimetric method; type: cell membranes, Sus scrofa
[4] = target: T2, Basic phospholipase A2 VRV-PL-VIIIa (Daboia russelii); assay: Inhibition of Vipera russelii venom sPLA2 at 11.01 uM in presence of fixed concentrations of DMPC substrate and 0 to 12 uM of calcium measured after 5 mins
[5] = target: T2, Basic phospholipase A2 VRV-PL-VIIIa (Daboia russelii); assay: Inhibition of Vipera russelii venom sPLA2-induced hemolytic activity in human erythrocytes assessed as reduction hemoglobin release in presence of egg yolk preincubated for 5 mins followed by erythrocyte addition by spectrophotometric analysis; type: cell-based
[6] = target: T2, Basic phospholipase A2 VRV-PL-VIIIa (Daboia russelii); assay: Inhibition of Vipera russelii venom sPLA2 at 11.01 uM in presence of fixed concentration of calcium and 0 to 400 uM of DMPC substrate measured after 5 mins
[7] = target: T2, Basic phospholipase A2 VRV-PL-VIIIa (Daboia russelii); assay: Inhibition of Vipera russelii venom sPLA2 assessed as remaining enzyme activity level at 11.01 uM in presence of fixed concentration of calcium and 400 uM of DMPC substrate measured after 5 mins

SMILES | IC50 [1] | inhibition [2] | IC50 [3] | inhibition [4] | inhibition [5] | inhibition [6] | Activity [7]
Fc1ccc(C2CC(c3ccco3)=Nc3ccccc3S2)cc1 (stereo not drawn) | 25.2 µM | Dose-dependent effect | 5.1 µM | – | – | – | –
O=[N+]([O-])c1ccc(C2CC(c3ccco3)=Nc3ccccc3S2)cc1 (stereo not drawn) | 56.9 µM | Dose-dependent effect | 3.73 µM | – | – | – | –
Brc1ccc(C2CC(c3ccco3)=Nc3ccccc3S2)cc1 (stereo not drawn) | 24.1 µM | Dose-dependent effect | 2.11 µM | – | – | – | –
COc1cc(C2CC(c3ccco3)=Nc3ccccc3S2)ccc1O (stereo not drawn) | 43.4 µM | Dose-dependent effect | 4.39 µM | – | – | – | –
c1ccc(C2CC(c3ccco3)=Nc3ccccc3S2)cc1 (stereo not drawn) | 12 µM | Dose-dependent effect | 8.01 µM | – | – | – | –
Clc1ccc(C2CC(c3ccco3)=Nc3ccccc3S2)cc1 (stereo not drawn) | 19.3 µM | Dose-dependent effect | 5.28 µM | – | – | – | –
c1coc(C2=Nc3ccccc3SC(c3ccc4c(c3)OCO4)C2)c1 (stereo not drawn) | 25.1 µM | Dose-dependent effect | 5.14 µM | – | – | – | –
COc1ccc(C2CC(c3ccco3)=Nc3ccccc3S2)cc1 (stereo not drawn) | 11 µM | Dose-dependent effect | 1.99 µM | Active | Dose-dependent effect | Active | 51%

Reference: ChEMBL document CHEMBL4020799, “Design, synthesis of novel furan appended benzothiazepine derivatives and in vitro biological evaluation as potent VRV-PL-8a and H+/K+ ATPase inhibitors” (Bioorg Med Chem Lett, 2017)
